# Results: ChEMBL document CHEMBL4813931, “Boesenmaxane Diterpenoids from Boesenbergia maxwellii” (J Nat Prod, 2021)
# Activity calls are given as the source filed them. The rule behind the calls is not given here.
# How the values were obtained:
# P388 = test: Cytotoxicity against mouse P388 cells measured after 48 hrs by SRB assay; type: functional, cell-based
# KB = test: Cytotoxicity against human KB cells measured after 48 hrs by SRB assay; type: functional, cell-based
# HT-29 = test: Cytotoxicity against human HT-29 cells measured after 48 hrs by SRB assay; type: functional, cell-based
# MCF7 = test: Cytotoxicity against human MCF7 cells measured after 48 hrs by SRB assay; type: functional, cell-based
# A549 = test: Cytotoxicity against human A549 cells measured after 48 hrs by SRB assay; type: functional, cell-based
# ASK = test: Cytotoxicity against rat ASK cells measured after 48 hrs by SRB assay; type: functional, cell-based
# T-24 = test: Cytotoxicity against human T-24 cells measured after 48 hrs by SRB assay; type: functional, cell-based
# HEK293 = test: Cytotoxicity against human HEK293 cells measured after 48 hrs by SRB assay; type: cell-based; details: hek293, 48 h
# [1] = biological target: Human immunodeficiency virus type 1 reverse transcriptase (Human immunodeficiency virus 1) (UniProt Q72547); test: Inhibition of HIV-1 reverse transcriptase using poly(rA)/oligo(dT)1 as template/primer incubated for 1 hr by pico-green reagent based fluorescence analysis
# Staphylococcus aureus = test: Antibacterial activity against Staphylococcus aureus assessed as bacterial growth inhibition measured after 16 to 18 hrs by Kirby-Bauer disk diffusion method; type: functional, organism-based; details: time 16-18 hrs
# Escherichia coli = test: Antibacterial activity against Escherichia coli assessed as bacterial growth inhibition measured after 16 to 18 hrs by Kirby-Bauer disk diffusion method; type: functional, organism-based; details: time 16-18 hrs
# Enterococcus faecalis = test: Antibacterial activity against Enterococcus faecalis assessed as bacterial growth inhibition measured after 16 to 18 hrs by Kirby-Bauer disk diffusion method; type: functional, organism-based; details: time 16-18 hrs
# Bacillus cereus = test: Antibacterial activity against Bacillus cereus assessed as bacterial growth inhibition measured after 16 to 18 hrs by Kirby-Bauer disk diffusion method; type: functional, organism-based; details: time 16-18 hrs
# Candida albicans = test: Antifungal activity against Candida albicans assessed as fungal growth inhibition measured after 16 to 18 hrs by Kirby-Bauer disk diffusion method; type: functional, organism-based; details: time 16-18 hrs
# [2] = Cytotoxicity against human 1A2 cells measured after 1 hr by XTT assay; type: cell-based; details: 1A2, 1 h
# [3] = Selectivity index, ratio of IC50 for human 1A2 cells to EC50 for Human calicivirus strain MC99 infected in human 1A2 cells; type: toxicity, cell-based; details: read-out: Ratio IC50/EC50
Compound,Activity (P388),Activity (KB),Activity (HT-29),Activity (MCF7),Activity (A549),Activity (ASK),Activity (T-24),Activity (HEK293),inhibition [1],inhibition (Staphylococcus aureus),inhibition (Escherichia coli),inhibition (Enterococcus faecalis),inhibition (Bacillus cereus),inhibition (Candida albicans),IC50 [2] [µM],selectivity ratio [3]
CC1(C)C(=O)CC[C@]2(C)C3=C(C[C@H](C4=CCOC4=O)C3)C(=O)C[C@@H]12,inactive,inactive,inactive,inactive,inactive,inactive,inactive,Non-Toxic,inactive,inactive,inactive,inactive,inactive,inactive,–,–
CC1(C)CCC[C@]2(C)[C@H]3C[C@@H](C4=CCOC4=O)CC3=CC[C@@H]12,inactive,inactive,inactive,inactive,inactive,inactive,inactive,Non-Toxic,–,inactive,inactive,inactive,inactive,inactive,381,–
CC1(C)CCC[C@]2(C)C3=C(C[C@H](C4=CCOC4=O)C3)C(=O)C[C@@H]12,inactive,inactive,inactive,inactive,inactive,inactive,inactive,Non-Toxic,inactive,inactive,inactive,inactive,inactive,inactive,> 398,> 7.2
